Source: US11207320B2, “Compositions and methods for cancer expressing PDE3A or SLFN12” (The Broad Institute, Inc., priority 2015, dated 2021)

Test system: 766 cancer cell lines
Assay: Large-scale cell-line viability measurements (766 cancer cell lines, 72 h, AUC)
Type: cell-based, human
Conditions: 72 hours
Protocol: Cell lines were treated for 72 hours with concentrations ranging from 66.4 μM-2 nM in 2-fold step dilutions.
To characterize cellular sensitivity to DNMDP further, 766 genomically characterized cancer cell lines were screened for DMNDP sensitivity at concentrations ranging from 66.4 μM to 2 nM in 2-fold dilution steps for 72 hours. From these cell lines, 22 cell lines were categorized as sensitive with a robust Z-score lower than −4, which represented multiple lineages including multiple melanoma cell lines, amongst others (Table 1).
The sensitivity of […] cancer cell lines (CCLs) was measured drawn from 23 different lineages to DNMDP. Each cell line was plated in its preferred media in white opaque 1536-plates at a density of 500 cells/well. After incubating overnight, DNMDP was added by acoustic transfer at 16 concentrations ranging from 66.4 μM-2 nM in 2-fold steps in duplicate (Labcyte Echo 555, Labcyte Inc., Sunnyvale, Calif.). After 72 hours treatment, cellular ATP levels were measured as a surrogate for viability (CELLTITERGLO®, Promega Corporation, Madison, Wis.) according to manufacturer's protocols using a ViewLux Microplate Imager (PerkinElmer, Waltham, Mass.) and normalized to background (media-only) and vehicle (DMSO)-treated control wells.
Concentration response curves were fit using nonlinear fits to 2- or 3-parameter sigmoid functions through all 16 concentrations with the low-concentration asymptote set to the DMSO-normalized value, and an optimal 8-point dose curve spanning the range of compound-sensitivity was identified. The area under the 8-point dose curve (AUC) was computed by numeric integration as a metric for sensitivity for further analysis. Similar sensitivity measurements have been obtained for a collection of 480 other compounds, enabling analyses that identify cell lines responding uniquely to DNMDP (see Broad Institute Cancer Therapeutics Response Portal, a dataset to identify comprehensively relationships between genetic and lineage features of human cancer cell lines and small-molecule sensitivities for complete list of compounds).

[1] = MOLM6 (HAEMATOPOIETIC AND LYMPHOID TISSUE)
[2] = MOLT13 (HAEMATOPOIETIC AND LYMPHOID TISSUE)
[3] = MV411 (HAEMATOPOIETIC AND LYMPHOID TISSUE)
[4] = NALM6 (HAEMATOPOIETIC AND LYMPHOID TISSUE)
[5] = NB4 (HAEMATOPOIETIC AND LYMPHOID TISSUE)
[6] = NCO2 (HAEMATOPOIETIC AND LYMPHOID TISSUE)
[7] = OCIAML2 (HAEMATOPOIETIC AND LYMPHOID TISSUE)
[8] = OCILY19 (HAEMATOPOIETIC AND LYMPHOID TISSUE)
[9] = PECAPJ15 (UPPER AERODIGESTIVE TRACT)
[10] = PF382 (HAEMATOPOIETIC AND LYMPHOID TISSUE)
[11] = RPMI8402 (HAEMATOPOIETIC AND LYMPHOID TISSUE)
[12] = SCC4 (UPPER AERODIGESTIVE TRACT)
[13] = SNU1214 (UPPER AERODIGESTIVE TRACT)
[14] = U118MG (CENTRAL NERVOUS SYSTEM)
[15] = U266B1 (HAEMATOPOIETIC AND LYMPHOID TISSUE)
[16] = U937 (HAEMATOPOIETIC AND LYMPHOID TISSUE)

SMILES: CCN(CC)c1ccc(C2=NNC(=O)CC2C)cc1[N+](=O)[O-] (centres unmarked) [DNMDP, 6-(4-(diethylamino)-3-nitrophenyl)-5-methyl-4,5-dihydropyridazin-3(2H)-one]
- Robust Z-score (LU99 (LUNG)): −0.8744
- DNMDP AUC (LXF289 (LUNG)): 5.734
- Robust Z-score (LXF289 (LUNG)): −0.9454
- DNMDP AUC (MALME3M (SKIN)): 6.112
- Robust Z-score (MALME3M (SKIN)): −0.5486
- DNMDP AUC (MCF7 (BREAST)): 6.1256
- Robust Z-score (MCF7 (BREAST)): −0.5343
- DNMDP AUC (MEWO (SKIN)): 5.738
- Robust Z-score (MEWO (SKIN)): −0.9412
- DNMDP AUC (MKN7 (STOMACH)): 6.1453
- Robust Z-score (MKN7 (STOMACH)): −0.5136
- DNMDP AUC [1]: 6.0447
- Robust Z-score [1]: −0.6192
- DNMDP AUC [2]: 6.084
- Robust Z-score [2]: −0.578
- DNMDP AUC [3]: 5.6905
- Robust Z-score [3]: −0.991
- DNMDP AUC [4]: 5.7872
- Robust Z-score [4]: −0.8895
- DNMDP AUC [5]: 6.219
- Robust Z-score [5]: −0.4363
- DNMDP AUC (NCIH23 (LUNG)): 6.1854
- Robust Z-score (NCIH23 (LUNG)): −0.4716
- DNMDP AUC (NCIH1184 (LUNG)): 6.1776
- Robust Z-score (NCIH1184 (LUNG)): −0.4797
- DNMDP AUC (NCIH1355 (LUNG)): 6.171
- Robust Z-score (NCIH1355 (LUNG)): −0.4867
- DNMDP AUC (NCIH1435 (LUNG)): 5.9756
- Robust Z-score (NCIH1435 (LUNG)): −0.6918
- DNMDP AUC (NCIH1563 (LUNG)): 1.0887
- Robust Z-score (NCIH1563 (LUNG)): −5.821
- DNMDP AUC (NCIH1793 (LUNG)): 6.2189
- Robust Z-score (NCIH1793 (LUNG)): −0.4364
- DNMDP AUC (NCIH2009 (LUNG)): 5.7594
- Robust Z-score (NCIH2009 (LUNG)): −0.9187
- DNMDP AUC (NCIH2122 (LUNG)): 1.3105
- Robust Z-score (NCIH2122 (LUNG)): −5.588
- DNMDP AUC (NCIH2141 (LUNG)): 5.7218
- Robust Z-score (NCIH2141 (LUNG)): −0.9582
- DNMDP AUC [6]: 5.7088
- Robust Z-score [6]: −0.9718
- DNMDP AUC [7]: 5.8945
- Robust Z-score [7]: −0.7769
- DNMDP AUC [8]: 6.1512
- Robust Z-score [8]: −0.5075
- DNMDP AUC (ONCODG1 (OVARY)): 5.8296
- Robust Z-score (ONCODG1 (OVARY)): −0.845
- DNMDP AUC (PC14 (LUNG)): 6.2003
- Robust Z-score (PC14 (LUNG)): −0.4559
- DNMDP AUC [9]: 5.789
- Robust Z-score [9]: −0.8876
- DNMDP AUC [10]: 5.8519
- Robust Z-score [10]: −0.8216
- DNMDP AUC (RERFLCAD1 (LUNG)): 6.1862
- Robust Z-score (RERFLCAD1 (LUNG)): −0.4707
- DNMDP AUC (RKN (SOFT TISSUE)): 6.1579
- Robust Z-score (RKN (SOFT TISSUE)): −0.5004
- DNMDP AUC [11]: 5.9827
- Robust Z-score [11]: −0.6843
- DNMDP AUC (RVH421 (SKIN)): 1.4556
- Robust Z-score (RVH421 (SKIN)): −5.436
- DNMDP AUC [12]: 6.0502
- Robust Z-score [12]: −0.6135
- DNMDP AUC (SKCO1 (LARGE INTESTINE)): 5.688
- Robust Z-score (SKCO1 (LARGE INTESTINE)): −0.9936
- DNMDP AUC (SKLU1 (LUNG)): 6.0109
- Robust Z-score (SKLU1 (LUNG)): −0.6547
- DNMDP AUC (SKMEL3 (SKIN)): 1.2215
- Robust Z-score (SKMEL3 (SKIN)): −5.682
- DNMDP AUC (SKMEL5 (SKIN)): 5.9639
- Robust Z-score (SKMEL5 (SKIN)): −0.7041
- DNMDP AUC (SKNBE2 (AUTONOMIC GANGLIA)): 5.7717
- Robust Z-score (SKNBE2 (AUTONOMIC GANGLIA)): −0.9058
- DNMDP AUC (SKNSH (AUTONOMIC GANGLIA)): 5.8424
- Robust Z-score (SKNSH (AUTONOMIC GANGLIA)): −0.8316
- DNMDP AUC (SNU119 (OVARY)): 6.1473
- Robust Z-score (SNU119 (OVARY)): −0.5115
- DNMDP AUC (SNU620 (STOMACH)): 6.1039
- Robust Z-score (SNU620 (STOMACH)): −0.5571
- DNMDP AUC (SNU869 (BILIARY TRACT)): 5.7543
- Robust Z-score (SNU869 (BILIARY TRACT)): −0.9241
- DNMDP AUC [13]: 6.2071
- Robust Z-score [13]: −0.4488
- DNMDP AUC (SNU1272 (KIDNEY)): 6.0226
- Robust Z-score (SNU1272 (KIDNEY)): −0.6424
- DNMDP AUC (SUIT2 (PANCREAS)): 5.8956
- Robust Z-score (SUIT2 (PANCREAS)): −0.7757
- DNMDP AUC (T3M10 (LUNG)): 6.1867
- Robust Z-score (T3M10 (LUNG)): −0.4702
- DNMDP AUC (TE8 (OESOPHAGUS)): 6.2119
- Robust Z-score (TE8 (OESOPHAGUS)): −0.4437
- DNMDP AUC (TE125T (SOFT TISSUE)): 5.744
- Robust Z-score (TE125T (SOFT TISSUE)): −0.9349
- DNMDP AUC (TUHR14TKB (KIDNEY)): 5.8451
- Robust Z-score (TUHR14TKB (KIDNEY)): −0.8287
- DNMDP AUC [14]: 6.1481
- Robust Z-score [14]: −0.5107
- DNMDP AUC [15]: 6.1906
- Robust Z-score [15]: −0.4661
- DNMDP AUC [16]: 6.1777
- Robust Z-score [16]: −0.4796
